Test results published in patent US20240116910A1, “Heterocycles as WIP1 Inhibitors” (PMV Pharmaceuticals, Inc., priority 2022, published 2024).

Target: recombinant His-tag Wip1(2-420) protein (amino acids #2-420) (Homo sapiens (Human), UniProt O15297)
Test: Wip1(2-420) phosphatase enzyme FDP assay
Assay type: biochemical
Conditions: fluorescein diphosphate (FDP) substrate, RT 2 hours, fluorescence Ex485/Em535; read-out: WIP1 (Truncated 2-420) FDP Assay: IC50
Method: The Human Wip1 (2-420, aa 2-420) or Wip1 full length (aa 1-605) DNA sequence was codon optimized and synthesized by Genscript for insect cell expression. The open reading frame of Wip1(2-420) with a N-terminal-His6 affinity tag followed by a TEV cleavage site was subcloned sites into the pFastBac1 expression vector. The recombinant bacmid DNA was transfected in Sf9 insect cells for baculovirus production. After 72 hours infection, the Sf9 cells were harvested by centrifugation and resuspended in lysis buffer containing 50 mM Tris/HCl, pH 8.0, 500 mM NaCl, 20% glycerol, Benzonase 0.5% CHAPS and Roche cOmplete™ EDTA free protease inhibitors. Cells were disrupted with microfluidizer and the debris was removed by centrifugation at 185,000 g for 1 hour. The supernatant was subjected to HisTrap FF for affinity purification. Proteins were eluted with a linear gradient of 0-500 mM imidazole in HisTrap buffer containing 50 mM Tris/HCl, pH 8.0, 500 mM NaCl and 20% glycerol, 0.05% CHAPS. The eluted protein was dialyzed against dialysis buffer (20 mM MES, 100 mM NaCl, 20% glycerol, 0.5 mM TCEP, 0.05% CHAPS) followed purification via HiTrap SP HP column. The protein was eluted with a gradient of 100 mM-2 M NaCl in dialysis buffer. His6-[…] was finally concentrated and loaded onto a size-exclusion column (NiLoad 16/600 Superdex 200 pg, GE Healthcare) pre-equilibrated with 50 mM MOPS (pH 7.5), 200 mM NaCl, 20% glycerol, 1 mM TCEP, 0.05% CHAPS and 0.1 mM EGTA. The peak fractions containing purified Nis6-Wip1(2-420) were pooled and concentrated to 1.0 mg/mL and flash frozen at −80° C.
Wip1 Length and Wip1(2-420) Phosphatase Enzyme FDP Assays.
Test compounds (252 mM stock in DMSO) were diluted 3 folds in series in DMSO and 1.2 μl per well were added into 384-well polypropylene black plates (Nunc). Twelve μl per well of Assay Buffer (100 mM NaCl, 50 mM MOPS, pH 7.5, 0.8 mM CHAPS, 0.1 mM EGTA, 30 mM MgCl2, 0.3 mM TCEP, 0.2 mg/mL BSA) was added followed by […] per well of 50.4 nM recombinant His-tag Wip1 full length protein (amino acids #1-605) or recombinant His-tag Wip1(2-420) protein (amino acids #2-420) in Assay Buffer and the plate was incubated at RT (22° C.) for 5 min. Ten mM of fluorescein diphosphate (FDP) in DMSO was diluted to […] in Assay Buffer and […] per well was added to the plate and incubated at RT (22° C.) for 2 hours. […] per well of 64.1 mM EDTA in water were added to stop the enzyme reaction. The plate was centrifuged at 1,200 rpm (Eppendorf 5810R Plate centrifuge) for 1 minute and fluorescence intensity (Ex485/Em535) was measured on Perkin Elmer Victor Reader. EC50 values were calculated using either Prism (GraphPad) or ActivityBase software (IDBS), The IC50 results are provided in Table M.

Chain of recombinant His-tag Wip1(2-420) protein (amino acids #2-420) (O15297 2-420): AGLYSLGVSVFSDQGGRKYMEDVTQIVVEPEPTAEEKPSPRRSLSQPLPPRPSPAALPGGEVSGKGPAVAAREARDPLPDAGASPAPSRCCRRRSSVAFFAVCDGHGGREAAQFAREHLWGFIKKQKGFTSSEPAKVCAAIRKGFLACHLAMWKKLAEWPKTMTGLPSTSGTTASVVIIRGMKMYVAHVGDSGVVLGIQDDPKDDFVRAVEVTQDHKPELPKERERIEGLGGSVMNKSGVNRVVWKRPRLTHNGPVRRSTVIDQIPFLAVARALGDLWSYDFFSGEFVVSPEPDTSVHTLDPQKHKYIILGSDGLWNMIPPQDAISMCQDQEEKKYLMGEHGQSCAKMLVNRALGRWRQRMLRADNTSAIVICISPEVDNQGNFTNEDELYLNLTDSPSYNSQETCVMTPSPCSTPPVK

| Structure (SMILES) | IC50 [nM] |
| --- | --- |
| COC(=O)c1ncc(Cl)cc1N[C@H](C)c1ccc(C(=O)N[C@@H](CC2CCCC2)C(=O)NC2CC2)s1 [Compound 103, methyl 5-chloro-3-{[(1R)-1-(5-{[(1S)-2-cyclopentyl-1-(cyclopropylcarbamoyl)ethyl]carbamoyl}thiophen-2-yl)ethyl]amino}pyridine-2-carboxylate] | 520 |
| C[C@H](Nc1cc(Cl)cnc1CO)c1ccc(C(=O)N[C@@H](CC2CCCC2)C(=O)NC2CC2)s1 [Compound 105, (2S)-2-({5-[(1S)-1-{[5-chloro-2-(hydroxymethyl)129yridine-3-yl]amino}ethyl]thiophen-2-yl}formamido)-3-cyclopentyl-N-cyclopropylpropanamide] | 18 |
| C[C@@H](Nc1cc(Cl)cnc1CO)c1ccc(C(=O)N[C@@H](CC2CCCC2)C(=O)NC2CC2)s1 [Compound 106, (2S)-2-({5-[(1R)-1-{[5-chloro-2-(hydroxymethyl)129yridine-3-yl]amino}ethyl]thiophen-2-yl}formamido)-3-cyclopentyl-N-cyclopropylpropanamide] | 472 |
| Cc1ncc(Cl)cc1N[C@@H](C)c1ccc(C(=O)N[C@@H](CC2CCCCC2)C(=O)NC23CC(C2)C3)s1 [Compound 109, (2S)-N-{bicyclo[1.1.1]pentan-1-yl}-2-({5-[(1S)-1-[(5-chloro-2-methylpyridin-3-yl)amino]ethyl]thiophen-2-yl}formamido)-3-cyclohexylpropanamide] | 8 |
| Cc1ncc(Cl)cc1N[C@@H](C)c1ccc(C(=O)N[C@@H](CC2CCC3CC32)C(=O)NC23CC(C#N)(C2)C3)s1 (stereo partly drawn) [Compound 111, (2S)-3-{bicyclo[3.1.0]hexan-2-yl}-2-({5-[(1S)-1-[(5-chloro-2-methylpyridin-3-yl)amino]ethyl]thiophen-2-yl}formamido)-N-{3-cyanobicyclo[1.1.1]pentan-1-yl}propanamide] | 12 |
| Cc1ncc(Cl)cc1N[C@@H](C)c1ccc(C(=O)N[C@@H](CC2CCCCC2)C(=O)Nc2ccc(F)cc2)s1 [Compound 112, (2S)-2-({5-[(1S)-1-[(5-chloro-2-methylpyridin-3-yl)amino]ethyl]thiophen-2-yl}formamido)-3-cyclohexyl-N-(4-fluorophenyl)propanamide] | 4 |
| Cc1ncc(Cl)cc1N[C@@H](C)c1ccc(C(=O)N[C@@H](CC2CCCC2)C(=O)NC23COC(C2)C3)s1 [Compound 113, (2S)-2-({5-[(1S)-1-[(5-chloro-2-methylpyridin-3-yl)amino]ethyl]thiophen-2-yl}formamido)-3-cyclopentyl-N-{2-oxabicyclo[2.1.1]hexan-4-yl}propanamide] | 11 |
| Cc1ncc(Cl)cc1N[C@@H](C)c1ccc(C(=O)N[C@@H](CC2CCC3CC32)C(=O)N[C@H]2C[C@H](F)C2)s1 (stereo partly drawn) [Compound 116, (2S)-3-{bicyclo[3.1.0]hexan-2-yl}-2-({5-[(1S)-1-[(5-chloro-2-methylpyridin-3-yl)amino]ethyl]thiophen-2-yl}formamido)-N-[(1r,3r)-3-fluorocyclobutyl]propanamide] | 10 |
| Cc1ncc(Cl)cc1N[C@H](C)c1ncc(C(=O)N[C@@H](CC2CCCC2)C(=O)NC23CC(C2)C3)s1 [Compound 126, (2S)-N-{bicyclo[1.1.1]pentan-1-yl}-2-({2-[(1R)-1-[(5-chloro-2-methylpyridin-3-yl)amino]ethyl]-1,3-thiazol-5-yl}formamido)-3-cyclopentylpropanamide] | 1020 |
| Cc1ncc(Cl)cc1N[C@H](C)c1ncc(C(=O)N[C@@H](CC2CCCC2)C(=O)NC2CC2)s1 [Compound 127, (2S)-2-({2-[(1R)-1-[(5-chloro-2-methylpyridin-3-yl)amino]ethyl]-1,3-thiazol-5-yl}formamido)-3-cyclopentyl-N-cyclopropylpropanamide] | 1550 |

Second part, the compound after the results:

| IC50 [nM] | Structure (SMILES) |
| --- | --- |
| 11 | C[C@H](c1ccc(C(=O)N[C@@H](CC2CCCC2)C(=O)NC23CC(C2)C3)s1)N(C)c1cncc(Cl)c1 [Compound 97, (2S)-N-{bicyclo[1.1.1]pentan-1-yl}-2-({5-[(1R)-1-[(5-chloropyridin-3-yl)(methyl)amino]ethyl]thiophen-2-yl}formamido)-3-cyclopentylpropanamide] |
| 6 | Cc1ncc(Cl)cc1N[C@@H](C)c1ccc(C(=O)N[C@@H](CC2CCCC2)C(=O)Nc2cnn(C)c2)s1 [Compound 98, (2S)-2-({5-[(1S)-1-[(5-chloro-2-methylpyridin-3-yl)amino]ethyl]thiophen-2-yl}formamido)-3-cyclopentyl-N-(1-methyl-1H-pyrazol-4-yl)propanamide] |
| 7 | Cc1ncc(Cl)cc1N[C@@H](C)c1ccc(C(=O)N[C@@H](CC2CCCC2)C(=O)N[C@H]2C[C@@H](C)C2)s1 [Compound 99, (2S)-2-({5-[(1S)-1-[(5-chloro-2-methylpyridin-3-yl)amino]ethyl]thiophen-2-yl}formamido)-3-cyclopentyl-N-[(1r,3s)-3-methylcyclobutyl]propanamide] |
| 10 | COC(=O)c1ncc(Cl)cc1N[C@@H](C)c1ccc(C(=O)N[C@@H](CC2CCCC2)C(=O)NC2CC2)s1 [Compound 102, methyl 5-chloro-3-{[(1S)-1-(5-{[(1S)-2-cyclopentyl-1-(cyclopropylcarbamoyl)ethyl]carbamoyl}thiophen-2-yl)ethyl]amino}pyridine-2-carboxylate] |
| 6 | Cc1ncc(Cl)cc1N[C@@H](C)c1ccc(C(=O)N[C@@H](CC2CCCC2)C(=O)NC2CC3(CCC3)C2)s1 [Compound 104, (2S)-2-({5-[(1S)-1-[(5-chloro-2-methylpyridin-3-yl)amino]ethyl]thiophen-2-yl}formamido)-3-cyclopentyl-N-{spiro[3.3]heptan-2-yl}propanamide] |
| 4 | Cc1ncc(Cl)cc1N[C@@H](C)c1ccc(C(=O)N[C@@H](CC2CCCCC2)C(=O)NC2CC2)s1 [Compound 107, (2S)-2-({5-[(1S)-1-[(5-chloro-2-methylpyridin-3-yl)amino]ethyl]thiophen-2-yl}formamido)-3-cyclohexyl-N-cyclopropylpropanamide] |
| 5 | Cc1ncc(Cl)cc1N[C@@H](C)c1ccc(C(=O)N[C@@H](CC2CCCCC2)C(=O)N[C@H]2C[C@H](F)C2)s1 [Compound 108, (2S)-2-({5-[(1S)-1-[(5-chloro-2-methylpyridin-3-yl)amino]ethyl]thiophen-2-yl}formamido)-3-cyclohexyl-N-[(1r,3r)-3-fluorocyclobutyl]propanamide] |
| 6 | Cc1ncc(Cl)cc1N[C@@H](C)c1ccc(C(=O)N[C@@H](CC2CCC3CC32)C(=O)NC23CC(C2)C3)s1 (stereo partly drawn) [Compound 110, (2S)-N-{bicyclo[1.1.1]pentan-1-yl}-3-{bicyclo[3.1.0]hexan-2-yl}-2-({5-[(1S)-1-[(5-chloro-2-methylpyridin-3-yl)amino]ethyl]thiophen-2-yl}formamido)propanamide] |
| 6 | Cc1ncc(Cl)cc1N[C@@H](C)c1ccc(C(=O)N[C@@H](CC2CCCC2)C(=O)N[C@H]2C[C@H](C)C2)s1 [Compound 114, (2S)-2-({5-[(1S)-1-[(5-chloro-2-methylpyridin-3-yl)amino]ethyl]thiophen-2-yl}formamido)-3-cyclopentyl-N-[(1s,3r)-3-methylcyclobutyl]propanamide] |
| 11 | Cc1ncc(Cl)cc1N[C@@H](C)c1ccc(C(=O)N[C@@H](CC2CCCC2)C(=O)NC2CCC(C#N)C2)s1 (stereo partly drawn) [Compound 115, (2S)-2-({5-[(1S)-1-[(5-chloro-2-methylpyridin-3-yl)amino]ethyl]thiophen-2-yl}formamido)-N-(3-cyanocyclopentyl)-3-cyclopentylpropanamide] |
| 905 | C[C@H](Nc1cccc(Cl)c1)c1ncc(C(=O)N[C@@H](CC2CCCC2)C(=O)NC2CC2)s1 [Compound 124, (2S)-2-({2-[(1S)-1-[(3-chlorophenyl)amino]ethyl]-1,3-thiazol-5-yl}formamido)-3-cyclopentyl-N-cyclopropylpropanamide] |
